Data reported in patent US7415358B2, “Molecular toxicology modeling” (Ocimum Biosolutions, Inc., priority 2001, dated 2008).
Where two headings read alike, the source gives them in different places.

Legend:
[1] = in vivo; cited from earlier work
[2] = tested on: angiotensin converting enzyme (ACE); settings: rats, 20, 25, and 30 days post-treatment; cited from earlier work
[3] = rat, in vivo, 65 mg/kg; cited from earlier work
glutathione reductase = settings: cited from earlier work
renal cortex = settings: cited from earlier work
[4] = CMV patients; cited from earlier work
[5] = rats, began on day 3; cited from earlier work
[6] = rats, cited from earlier work
[7] = rabbit, in vivo; cited from earlier work
rat hepatocytes = settings: cited from earlier work
[8] = Clinical chemistry of the dosed rats; format: in vivo; settings: rats given the high dosage
[9] = rats fed hydralazine, compared to control groups; cited from earlier work
[10] = rats and mice, varying doses; cited from earlier work
[11] = tested on: glomerular epithelial cell; settings: rat, in vivo; cited from earlier work
[12] = rat, in vivo; cited from earlier work
[13] = four HIV-positive patients treated for toxoplasmosis; cited from earlier work
[14] = treatment 2 to 25 years; cited from earlier work
[15] = male Wistar rats, daily doses within human therapeutic range; cited from earlier work

**Q.** For “9-[(2-hydroxyethyl) methyl] guanine [ACYCLOVIR]”, which excretion [1] is on record?
**A.** The excretion was “most of it is excreted in the urine largely unchanged”.

**Q.** With COc1cccc2c1C(=O)c1c(O)c3c(c(O)c1C2=O)C[C@@](O)(C(=O)CO)C[C@@H]3O[C@H]1C[C@H](N)[C@H](O)[C@H](C)O1 [ADR] as the molecule, how does the “serum ACE levels” value [2] read?
**A.** Its value is “serum ACE levels were significantly elevated”.

**Q.** Which CGT excretion [3] does the source give for N.N.O=C([O-])C1(C(=O)[O-])CCC1.[Pt+2] [CARBOPLATIN] here?
**A.** Its CGT excretion is “increased approximately two-fold”.

**Q.** What does the source list for O=C(Cc1cccs1)N[C@@H]1C(=O)N2C(C(=O)[O-])=C(C[n+]3ccccc3)CS[C@H]12 [CEPHALORIDINE]?
**A.** glutathione reductase activity (glutathione reductase): inhibited glutathione reductase; reduced glutathione (GSH) in the renal cortex (renal cortex): depleted reduced glutathione (GSH)

**Q.** Which results are given for Nc1ccn(C[C@@H](CO)OCP(=O)(O)O)c(=O)n1 [CIDOFOVIR]?
**A.** patients with dose-dependent asymptomatic proteinuria [4]: Approximately 40%; patients with elevated serum creatinine levels [4]: 25%

**Q.** Which serum creatinine levels [5] does the source give for N.N.[Cl][Pt][Cl] [CISPLATIN, Pt(NH3)2(Cl)2] here?
**A.** Its serum creatinine levels is “elevations in serum creatinine levels”.

**Q.** What about the BUN ([6]; day 2, high-dose groups (10-15 mg/kg)) of the same molecule?
**A.** The BUN was “six or seven-fold elevation in BUN”.

**Q.** And the BUN ([6]; day 4, 5 mg/kg group)?
**A.** Its BUN is “BUN elevation was noted”.

**Q.** For CC1=C2C(=CO[C@H](C)[C@H]2C)C(O)=C(C(=O)O)C1=O [CITRININ], which “creatinine clearance, blood urea nitrogen, serum creatinine (renal failure)” value [7] is on record?
**A.** Its value is “decreased creatinine clearance and increased blood urea nitrogen and serum-creatinine levels”.

**Q.** With O=C(O)c1cc(-c2ccc(F)cc2F)ccc1O [DIFLUNISAL] as the molecule, how does the LDH leakage (rat hepatocytes; 500 μM, compared to control) read?
**A.** Its LDH leakage is “increase LDH leakage”.

**Q.** What about the “intracellular ATP concentrations” value (rat hepatocytes) of the same molecule?
**A.** The value was “decreased intracellular ATP concentrations”.

**Q.** What about the concentrations of creatinine [8] of the same molecule?
**A.** The concentrations of creatinine was “increased concentrations of creatinine”.

**Q.** Which kidney copper concentrations [9] does the source give for NNc1nncc2ccccc12 [HYDRALAZINE] here?
**A.** The kidney copper concentrations was “kidney copper concentrations were increased”.

**Q.** With NCCC(O)(P(=O)(O)O)P(=O)(O)O [PAMIDRONATE] as the molecule, how does the “body weight and creatinine clearance” value [10] read?
**A.** The value was “significant weight loss and a decrease in creatinine clearance”.

**Q.** Which results are given for CN(C)c1ncnc2c1ncn2[C@@H]1O[C@H](CO)[C@@H](N)[C@H]1O [PAN, puromycin aminonucleoside]?
**A.** glomerular epithelial cell apoptosis [11]: induced glomerular epithelial cell apoptosis; proteinuria [12]: led to proteinuria

**Q.** Which “clinical renal adverse findings” value [13] does the source give for Nc1ccc(S(=O)(=O)Nc2ncccn2)cc1 [SULFADIAZINE] here?
**A.** Its value is “developed oliguria, abdominal pain, renal failure”.

**Q.** With LITHIUMCHLORIDE as the molecule, how does the “patients with nephrogenic diabetes insipidus (NDI)” value [14] read?
**A.** Its value is about 90%.

**Q.** And the “patients with nephrotic proteinuria” value [14]?
**A.** The value was “Approximately one fourth”.

**Q.** And the polyuria [15]?
**A.** The polyuria was “marked polyuria within three weeks”.
